From patent publication US20250163066A1, “PROTACs of MALT1” (TEGID THERAPEUTICS, INC., priority 2022, published 2025)

What was measured:
MALT1 = MALT1 (Homo sapiens (Human), UniProt Q9UDY8); assay: MALT1 enzymatic activity inhibition (fluorescence, Ac-LRSR-AMC substrate); format: biochemical; conditions: recombinant MALT1 1.5 ng/μl, Ac-LRSR-AMC 1 μM
How it was run: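 Recombinant human MALT1 (1.5 ng/μl final) preincubated 10 min at rt with compounds in 50 mM HEPES pH 7.2-7.4, 100 mM NaCl, 900 mM sodium citrate, 10 mM DTT; 1 μM Ac-LRSR-AMC then added. AMC fluorescence read at start and after 30 min 37 °C plus 30 min rt; difference gives signal, % inhibition fitted to IC50.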

[1] = test system: IL-2 MALT1-dependent release in Jurkat cells; assay: cells; format: cell-based; conditions: Homo sapiens; Jurkat cells stimulated with antiCD3/antiCD28 for 24 h; IL-2 ELISA; read-out: EC50, IL-2 MALT1-dependent release inhibition
Description: Jurkat cells (ATCC, USA) (100,000 cells/well in a 96 well flat-bottom plate (Greiner, #655061) were cultured in RPMI 1640 supplemented with 10% FBS at 37° C., 5% CO2 in a humidified cell culture incubator for 0.5-1 h. Then 10 μl/well 15× compound (or DMSO) was added in duplicates. Cells were incubated with compound in a humidified cell culture incubator for 0.5-1 h. After the incubation, 10 μl/well of 15× human antiCD3 HIT3a antibody (BioLegend) together with 10 μl/well of 15× human antiCD28 antibody (Invitrogen) were added to stimulate Jurkat cells for 24 h. After 24 h of stimulation, supernatants were collected and IL-2 levels in supernatants were assessed using IL-2 ELISA kit (Vector-Best, Russia).

Sequence of MALT1 (Q9UDY8 whole entry): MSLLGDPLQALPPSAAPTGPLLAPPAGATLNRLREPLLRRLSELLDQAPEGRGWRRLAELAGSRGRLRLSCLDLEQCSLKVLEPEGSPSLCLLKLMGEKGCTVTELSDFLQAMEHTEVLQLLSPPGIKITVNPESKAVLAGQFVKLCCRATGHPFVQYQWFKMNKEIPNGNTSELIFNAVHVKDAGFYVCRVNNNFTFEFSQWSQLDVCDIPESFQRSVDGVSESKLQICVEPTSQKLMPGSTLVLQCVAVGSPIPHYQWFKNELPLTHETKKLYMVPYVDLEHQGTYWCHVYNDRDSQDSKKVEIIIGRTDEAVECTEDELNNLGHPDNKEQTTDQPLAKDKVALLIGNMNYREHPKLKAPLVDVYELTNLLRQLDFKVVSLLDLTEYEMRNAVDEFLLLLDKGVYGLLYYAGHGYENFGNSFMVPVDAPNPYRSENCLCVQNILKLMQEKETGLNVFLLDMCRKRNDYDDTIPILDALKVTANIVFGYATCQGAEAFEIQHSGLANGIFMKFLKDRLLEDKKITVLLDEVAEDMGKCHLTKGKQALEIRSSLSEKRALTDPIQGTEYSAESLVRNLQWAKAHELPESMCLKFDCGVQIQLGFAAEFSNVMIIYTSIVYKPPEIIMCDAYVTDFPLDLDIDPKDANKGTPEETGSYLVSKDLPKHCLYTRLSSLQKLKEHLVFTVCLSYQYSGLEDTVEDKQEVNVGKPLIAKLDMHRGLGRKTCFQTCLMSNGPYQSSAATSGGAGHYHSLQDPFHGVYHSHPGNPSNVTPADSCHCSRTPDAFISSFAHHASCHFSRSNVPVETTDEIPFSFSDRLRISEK

Row | SMILES | EC50 (MALT1) [µM] | EC50 [1] [nM]
1 | O=C1CCC(N2Cc3cc(N4CCN(C(=O)CCCCCc5nc(-c6ncc(NC(=O)Nc7cnc8ccnn8c7C7CCCC7)cc6Cl)no5)CC4)ccc3C2=O)C(=O)N1 (centres unmarked) [Compound 3, 1-[5-chloro-6-[5-[6-[4-[2-(2,6-dioxo-3-piperidyl)-1-oxo-isoindolin-5-yl]piperazin-1-yl]-6-oxo-hexyl]-1,2,4-oxadiazol-3-yl]-3-pyridyl]-3-(7-cyclopentylpyrazolo[1,5-a]pyrimidin-6-yl)urea] | ≤ 0.2 | < 500
2 | Cc1cc(NC(=O)Nc2cnc3ccnn3c2C2CCCC2)cnc1-c1noc(CC(C)(C)CC(=O)N2CCN(c3ccc4c(c3)CN(C3CCC(=O)NC3=O)C4=O)CC2)n1 (centres unmarked) [Compound 10, 1-(7-cyclopentylpyrazolo[1,5-a]pyrimidin-6-yl)-3-[6-[5-[4-[4-[2-(2,6-dioxo-3-piperidyl)-1-oxo-isoindolin-5-yl]piperazin-1-yl]-2,2-dimethyl-4-oxo-butyl]-1,2,4-oxadiazol-3-yl]-5-methyl-3-pyridyl]urea] | 0.2 to 0.5 | 500 to 1000
3 | Cc1cc(NC(=O)Nc2cnc3ccnn3c2C2CCCC2)cnc1-c1noc(CCC(=O)N2CCN(c3ccc4c(c3)CN(C3CCC(=O)NC3=O)C4=O)CC2)n1 (centres unmarked) [Compound 13, 1-(7-cyclopentylpyrazolo[1,5-a]pyrimidin-6-yl)-3-[6-[5-[3-[4-[2-(2,6-dioxo-3-piperidyl)-1-oxo-isoindolin-5-yl]piperazin-1-yl]-3-oxo-propyl]-1,2,4-oxadiazol-3-yl]-5-methyl-3-pyridyl]urea] | ≤ 0.2 | > 5000
4 | O=C1CCC(N2Cc3cc(N4CCN(C(=O)CCCCn5cc(NC(=O)Nc6cnc7ccnn7c6C6CCC6)c(C(F)(F)F)n5)CC4)ccc3C2=O)C(=O)N1 (centres unmarked) [Compound 152, 1-(7-cyclobutylpyrazolo[1,5-a]pyrimidin-6-yl)-3-[1-[5-[4-[2-(2,6-dioxo-3-piperidyl)-1-oxo-isoindolin-5-yl]piperazin-1-yl]-5-oxo-pentyl]-3-(trifluoromethyl)pyrazol-4-yl]urea] | 1 to 5 | 
5 | O=C1CCC(N2Cc3cc(N4CCN(C(=O)CCCCn5cc(NC(=O)Nc6cnc7ccnn7c6C6CCCO6)c(C(F)(F)F)n5)CC4)ccc3C2=O)C(=O)N1 (centres unmarked) [Compound 155, 1-[1-[5-[4-[2-(2,6-dioxo-3-piperidyl)-1-oxo-isoindolin-5-yl]piperazin-1-yl]-5-oxo-pentyl]-3-(trifluoromethyl)pyrazol-4-yl]-3-(7-tetrahydrofuran-2-ylpyrazolo[1,5-a]pyrimidin-6-yl)urea] | > 5 | 
6 | O=C1CCC(N2Cc3cc(N4CCN(CCCCCn5cc(NC(=O)Nc6cnc7ccnn7c6C6CCC6)c(C(F)(F)F)n5)CC4)ccc3C2=O)C(=O)N1 (centres unmarked) [Compound 156, 1-(7-cyclobutylpyrazolo[1,5-a]pyrimidin-6-yl)-3-[1-[5-[4-[2-(2,6-dioxo-3-piperidyl)-1-oxo-isoindolin-5-yl]piperazin-1-yl]pentyl]-3-(trifluoromethyl)pyrazol-4-yl]urea] | > 5 | 
7 | O=C1CCC(N2Cc3cc(N4CCN(CCCCCCc5nc(-c6ncc(NC(=O)Nc7cnc8ccnn8c7C7CC7)cc6Cl)no5)CC4)ccc3C2=O)C(=O)N1 (centres unmarked) [Compound 159, 1-[5-chloro-6-[5-[6-[4-[2-(2,6-dioxo-3-piperidyl)-1-oxo-isoindolin-5-yl]piperazin-1-yl]hexyl]-1,2,4-oxadiazol-3-yl]-3-pyridyl]-3-(7-cyclopropylpyrazolo[1,5-a]pyrimidin-6-yl)urea] | ≤ 0.2 | 
8 | O=C1CCC(N2Cc3cc(N4CCN(CCCCCc5nc(-c6ncc(NC(=O)Nc7cnc8ccnn8c7C7CC7)cc6Cl)no5)CC4)ccc3C2=O)C(=O)N1 (centres unmarked) [Compound 161, 1-[5-chloro-6-[5-[5-[4-[2-(2,6-dioxo-3-piperidyl)-1-oxo-isoindolin-5-yl]piperazin-1-yl]pentyl]-1,2,4-oxadiazol-3-yl]-3-pyridyl]-3-(7-cyclopropylpyrazolo[1,5-a]pyrimidin-6-yl)urea] | ≤ 0.2 | 
9 | O=C1CCC(N2Cc3cc(N4CCN(C(=O)CCCc5nc(-c6ncc(NC(=O)Nc7cnc8ccnn8c7C7CC7)cc6Cl)no5)CC4)ccc3C2=O)C(=O)N1 (centres unmarked) [Compound 165, 1-[5-chloro-6-[5-[4-[4-[2-(2,6-dioxo-3-piperidyl)-1-oxo-isoindolin-5-yl]piperazin-1-yl]-4-oxo-butyl]-1,2,4-oxadiazol-3-yl]-3-pyridyl]-3-(7-cyclopropylpyrazolo[1,5-a]pyrimidin-6-yl)urea] | ≤ 0.2 | 
10 | O=C1CCC(N2Cc3cc(N4CCN(CCCCc5nc(-c6ncc(NC(=O)Nc7cnc8ccnn8c7C7CC7)cc6Cl)no5)CC4)ccc3C2=O)C(=O)N1 (centres unmarked) [Compound 166, 1-[5-chloro-6-[5-[4-[4-[2-(2,6-dioxo-3-piperidyl)-1-oxo-isoindolin-5-yl]piperazin-1-yl]butyl]-1,2,4-oxadiazol-3-yl]-3-pyridyl]-3-(7-cyclopropylpyrazolo[1,5-a]pyrimidin-6-yl)urea] | ≤ 0.2 | 

Results, then the compound that gave them:

Row | EC50 (MALT1) [µM] | EC50 [1] [nM] | SMILES
11 | ≤ 0.2 | 1000 to 5000 | Cc1cc(NC(=O)Nc2cnc3ccnn3c2C2CCCC2)cnc1-c1noc(CCCC(=O)N2CCN(c3ccc4c(c3)CN(C3CCC(=O)NC3=O)C4=O)CC2)n1 (centres unmarked) [Compound 12, 1-(7-cyclopentylpyrazolo[1,5-a]pyrimidin-6-yl)-3-[6-[5-[4-[4-[2-(2,6-dioxo-3-piperidyl)-1-oxo-isoindolin-5-yl]piperazin-1-yl]-4-oxo-butyl]-1,2,4-oxadiazol-3-yl]-5-methyl-3-pyridyl]urea]
12 | 0.2 to 0.5 |  | Cc1cc(NC(=O)Nc2cnc3ccnn3c2C(C)C)cnc1-c1nnc(CCCCCC(=O)N2CCN(c3ccc4c(c3)CN(C3CCC(=O)NC3=O)C4=O)CC2)s1 (centres unmarked) [Compound 153, 1-[6-[5-[6-[4-[2-(2,6-dioxo-3-piperidyl)-1-oxo-isoindolin-5-yl]piperazin-1-yl]-6-oxo-hexyl]-1,3,4-thiadiazol-2-yl]-5-methyl-3-pyridyl]-3-(7-isopropylpyrazolo[1,5-a]pyrimidin-6-yl)urea]
13 | 0.2 to 0.5 |  | Cc1cc(NC(=O)Nc2cnc3ccnn3c2C(C)C)cnc1-c1nnc(CCCCC(=O)N2CCN(c3ccc4c(c3)CN(C3CCC(=O)NC3=O)C4=O)CC2)s1 (centres unmarked) [Compound 154, 1-[6-[5-[5-[4-[2-(2,6-dioxo-3-piperidyl)-1-oxo-isoindolin-5-yl]piperazin-1-yl]-5-oxo-pentyl]-1,3,4-thiadiazol-2-yl]-5-methyl-3-pyridyl]-3-(7-isopropylpyrazolo[1,5-a]pyrimidin-6-yl)urea]
14 | > 5 |  | CC(C)c1c(NC(=O)Nc2cn(CCCCC(=O)N3CCN(c4ccc5c(c4)CN(C4CCC(=O)NC4=O)C5=O)CC3)nc2C(F)(F)F)cnc2ccnn12 (centres unmarked) [Compound 157, 1-[1-[5-[4-[2-(2,6-dioxo-3-piperidyl)-1-oxo-isoindolin-5-yl]piperazin-1-yl]-5-oxo-pentyl]-3-(trifluoromethyl)pyrazol-4-yl]-3-(7-isopropylpyrazolo[1,5-a]pyrimidin-6-yl)urea]
15 | ≤ 0.2 |  | O=C1CCC(N2Cc3cc(N4CCN(C(=O)CCCCCc5nc(-c6ncc(NC(=O)Nc7cnc8ccnn8c7C7CC7)cc6Cl)no5)CC4)ccc3C2=O)C(=O)N1 (centres unmarked) [Compound 158, 1-[5-chloro-6-[5-[6-[4-[2-(2,6-dioxo-3-piperidyl)-1-oxo-isoindolin-5-yl]piperazin-1-yl]-6-oxo-hexyl]-1,2,4-oxadiazol-3-yl]-3-pyridyl]-3-(7-cyclopropylpyrazolo[1,5-a]pyrimidin-6-yl)urea]
16 | ≤ 0.2 |  | O=C1CCC(N2Cc3cc(N4CCN(C(=O)CCCCc5nc(-c6ncc(NC(=O)Nc7cnc8ccnn8c7C7CC7)cc6Cl)no5)CC4)ccc3C2=O)C(=O)N1 (centres unmarked) [Compound 160, 1-[5-chloro-6-[5-[5-[4-[2-(2,6-dioxo-3-piperidyl)-1-oxo-isoindolin-5-yl]piperazin-1-yl]-5-oxo-pentyl]-1,2,4-oxadiazol-3-yl]-3-pyridyl]-3-(7-cyclopropylpyrazolo[1,5-a]pyrimidin-6-yl)urea]
17 | ≤ 0.2 |  | CC(C)c1c(NC(=O)Nc2cnc(-c3noc(CCCCCC(=O)N4CCN(c5ccc6c(c5)CN(C5CCC(=O)NC5=O)C6=O)CC4)n3)c(C(F)(F)F)c2)cnc2ccnn12 (centres unmarked) [Compound 162, 1-[6-[5-[6-[4-[2-(2,6-dioxo-3-piperidyl)-1-oxo-isoindolin-5-yl]piperazin-1-yl]-6-oxo-hexyl]-1,2,4-oxadiazol-3-yl]-5-(trifluoromethyl)-3-pyridyl]-3-(7-isopropylpyrazolo[1,5-a]pyrimidin-6-yl)urea]
18 | > 5 |  | Cc1nn(CCCCC(=O)N2CCN(c3ccc4c(c3)CN(C3CCC(=O)NC3=O)C4=O)CC2)cc1NC(=O)Nc1cnc2ccnn2c1C(C)C (centres unmarked) [Compound 164, 1-[1-[5-[4-[2-(2,6-dioxo-3-piperidyl)-1-oxo-isoindolin-5-yl]piperazin-1-yl]-5-oxo-pentyl]-3-methyl-pyrazol-4-yl]-3-(7-isopropylpyrazolo[1,5-a]pyrimidin-6-yl)urea]
19 | ≤ 0.2 |  | Cc1cc(NC(=O)Nc2cnc3ccnn3c2C2CC2)cnc1-c1noc(CCCCC(=O)N2CCN(c3ccc4c(c3)CN(C3CCC(=O)NC3=O)C4=O)CC2)n1 (centres unmarked) [Compound 169, 1-(7-cyclopropylpyrazolo[1,5-a]pyrimidin-6-yl)-3-[6-[5-[5-[4-[2-(2,6-dioxo-3-piperidyl)-1-oxo-isoindolin-5-yl]piperazin-1-yl]-5-oxo-pentyl]-1,2,4-oxadiazol-3-yl]-5-methyl-3-pyridyl]urea]
